This note sets out measurements from patent publication US20100062477A1, “METHODS OF ISOLATING AND PROPAGATING STEM CELLS FROM BENIGN TUMORS” (CEDARS-SINAI MEDICAL CENTER, priority 2006, published 2010).

For the test, the system named is Pituitary tumor stem cells and adherent daughter cells. Nature of the test: WST-1 proliferation assay of resistance to chemotherapeutic treatment. In kind it is cell-based, human. The conditions noted are these: 50 μM carboplatin and 12.5 μM VP16 for 48 h; stem cells compared with adherent cells. The method, then:
Pituitary tumor stem cells and adherent daughter cells were also tested for the resistance to chemotherapeutic treatment. Cells were treated with 50 μM carboplatin and 12.5 μM VP16 for 48 h and the toxicity was assessed by WST-1 proliferation assay.

With `N.N.O=C([O-])C1(C(=O)[O-])CCC1.[Pt+2]` [carboplatin], the “toxicity assessed by WST-1 proliferation assay (resistance of pituitary tumor stem cells vs adherent daughter cells)” value is “significantly more resistant than the adherent cells”.
For the compound `COc1cc([C@@H]2c3cc4c(cc3[C@@H](O[C@@H]3O[C@@H]5CO[C@@H](C)O[C@H]5[C@H](O)[C@H]3O)[C@H]3COC(=O)[C@H]23)OCO4)cc(OC)c1O` [VP16], the “toxicity assessed by WST-1 proliferation assay (resistance of pituitary tumor stem cells vs adherent daughter cells)” value was “significantly more resistant than the adherent cells”.
